Results from ChEMBL document CHEMBL5344403, “Discovery and evaluation of phenacrylanilide derivatives as novel potential anti-liver fibrosis agents” (Eur J Med Chem, 2022).
Active and inactive are the calls of the source. No cut-off for these calls is given here.

Key:
LX-2 [1] = experiment: Inhibition of TGF-beta1-induced human LX2 activation at 20 uM pretreated with TGF-beta1 for 1 hr followed by compound addition and measured after 72 hrs by CCK-8 assay relative to control; format: functional
[2] = Antiproliferative activity against human LX2 cells assessed as cell survival rate at 20 uM incubated for 72 hrs by CCK-8 assay; format: toxicity, cell-based; conditions: LX-2 cells, read-out: Activity
LX-2 [3] = experiment: […] of alpha-SMA mRNA expression in TGF-beta1-induced human LX2 cells at 20 uM pretreated with TGF-beta1 for 1 hr followed by compound addition and measured after 24 hrs by qRT-PCR analysis; format: functional, cell-based
Mus musculus [4] = experiment: Antifibrotic activity against CCL4-induced C57BL/6J mouse hepatic fibrosis model assessed as reduction in CD69/CD4 in Th1 cell cells at 30 mg/kg, po measured for 3 weeks by flow cytometry analysis relative to control; format: functional; parameters: scale not given: the % may be the effect or the level left
Mus musculus [5] = experiment: Antifibrotic activity against CCL4-induced C57BL/6J mouse hepatic fibrosis model assessed as reduction in F4/80+CD11b+ in macrophage at 30 mg/kg, po measured for 3 weeks by flow cytometry analysis relative to control; format: functional; parameters: scale not given: the % may be the effect or the level left
Mus musculus [6] = experiment: Antifibrotic activity against CCL4-induced C57BL/6J mouse hepatic fibrosis model assessed as reduction in CD11b/Gr-1 in MDSC cells at 30 mg/kg, po measured for 3 weeks by flow cytometry analysis relative to control; format: functional; parameters: scale not given: the % may be the effect or the level left
Mus musculus [7] = experiment: Antifibrotic activity against CCL4-induced C57BL/6J mouse hepatic fibrosis model assessed as reduction in CD69/CD8 in […] cell cells at 30 mg/kg, po measured for 3 weeks by flow cytometry analysis relative to control; format: functional; parameters: scale not given: the % may be the effect or the level left
[8] = Toxicity in CCL4-induced po dosed C57BL/6J mouse assessed as inflammatory cell infiltration in heart at 15 to 30 mg/kg, po by H and E staining based analysis; format: organism-based; conditions: in vivo, dose 15-30 mg/kg
[9] = Toxicity in CCL4-induced po dosed C57BL/6J mouse assessed as inflammatory cell infiltration in spleen at 15 to 30 mg/kg, po by H and E staining based analysis; format: organism-based; conditions: in vivo, dose 15-30 mg/kg
[10] = Antiproliferative activity against human LO2 cells assessed as inhibition of cell growth incubated for 72 hrs by CCK-8 assay; format: toxicity, cell-based; conditions: LO2 (L02) cells
[11] = Toxicity in CCL4-induced po dosed C57BL/6J mouse assessed as inflammatory cell infiltration in lung at 15 to 30 mg/kg, po by H and E staining based analysis; format: organism-based; conditions: in vivo, dose 15-30 mg/kg
Mus musculus [12] = experiment: Anti-hepatic fibrosis activity in CCL4-induced C57BL/6J mouse hepatic fibrosis model assessed as improvement in liver structural damage at 15 to 30 mg/kg, po measured for 3 weeks by H and E staining based analysis; format: functional, organism-based; conditions: dose 15-30 mg/kg
LX-2 [13] = experiment: Antifibrotic activity against TGF-beta1 induced human LX2 cells assessed as reduction of alpha-SMA expression at 20 uM pretreated with TGF-beta1 for 1 hr followed by compound addition and measured after 24 hrs by Western blot analysis; format: functional, cell-based
Mus musculus [14] = experiment: Anti-hepatic fibrosis activity in CCL4-induced C57BL/6J mouse hepatic fibrosis model assessed as decrease in collagen deposition in liver at 15 to 30 mg/kg, po measured for 3 weeks by sirius red staining based analysis; format: functional, organism-based; conditions: dose 15-30 mg/kg
[15] = Toxicity in CCL4-induced C57BL/6J mouse assessed as effect on body weight at 15 to 30 mg/kg, po; format: organism-based; conditions: in vivo, dose 15-30 mg/kg
Mus musculus [16] = experiment: Anti-hepatic fibrosis activity in CCL4-induced C57BL/6J mouse hepatic fibrosis model assessed as decrease in serum TG level at 15 to 30 mg/kg, po measured for 3 weeks; format: functional, organism-based; conditions: dose 15-30 mg/kg
Mus musculus [17] = experiment: Anti-hepatic fibrosis activity in CCL4-induced C57BL/6J mouse hepatic fibrosis model assessed as decrease in serum CHO level at 15 to 30 mg/kg, po measured for 3 weeks; format: functional, organism-based; conditions: dose 15-30 mg/kg
Mus musculus [18] = experiment: Anti-hepatic fibrosis activity in CCL4-induced C57BL/6J mouse hepatic fibrosis model assessed as downregulation of alpha-SMA level at 30 mg/kg, po measured for 3 weeks by Western blot analysis; format: functional, organism-based
Mus musculus [19] = experiment: Anti-hepatic fibrosis activity in CCL4-induced C57BL/6J mouse hepatic fibrosis model assessed as decrease in collagen deposition in liver at 15 to 30 mg/kg, po measured for 3 weeks by Masson's trichome staining based analysis; format: functional, organism-based; conditions: dose 15-30 mg/kg
[20] = Toxicity in CCL4-induced C57BL/6J mouse assessed as effect on urea level at 15 to 30 mg/kg, po; format: organism-based; conditions: in vivo, dose 15-30 mg/kg
Mus musculus [21] = experiment: Anti-hepatic fibrosis activity in CCL4-induced C57BL/6J mouse hepatic fibrosis model assessed as downregulation of alpha-SMA mRNA expression at 30 mg/kg, po measured for 3 weeks by qRT-PCR analysis; format: functional, organism-based
Mus musculus [22] = experiment: Inhibition of epithelial mesenchymal transition in CCL4-induced C57BL/6J mouse hepatic fibrosis model assessed as decrease in vimentin protein expression at 15 to 30 mg/kg, po measured for 3 weeks; format: functional, organism-based; conditions: dose 15-30 mg/kg
Mus musculus [23] = experiment: Anti-hepatic fibrosis activity in CCL4-induced C57BL/6J mouse hepatic fibrosis model assessed as downregulation of collagen mRNA expression at 30 mg/kg, po measured for 3 weeks by qRT-PCR analysis; format: functional, organism-based
Mus musculus [24] = experiment: Antifibrotic activity against CCL4-induced C57BL/6J mouse hepatic fibrosis model assessed as reduction in CD69/CD8 in […] cell cells at 15 mg/kg, po measured for 3 weeks by flow cytometry analysis relative to control; format: functional; parameters: scale not given: the % may be the effect or the level left
Mus musculus [25] = experiment: Anti-hepatic fibrosis activity in CCL4-induced C57BL/6J mouse hepatic fibrosis model assessed as reduction in liver injury at 15 to 30 mg/kg, po measured for 3 weeks; format: functional, organism-based; conditions: dose 15-30 mg/kg
[26] = Toxicity in CCL4-induced C57BL/6J mouse assessed as effect on creatinine level at 15 to 30 mg/kg, po; format: organism-based; conditions: in vivo, dose 15-30 mg/kg
LX-2 [27] = experiment: Antifibrotic activity against TGF-beta1 induced human LX2 cells assessed as reduction of fibronectin expression at 20 uM pretreated with TGF-beta1 for 1 hr followed by compound addition and measured after 24 hrs by Western blot analysis; format: functional, cell-based
Mus musculus [28] = experiment: Inhibition of epithelial mesenchymal transition in CCL4-induced C57BL/6J mouse hepatic fibrosis model assessed as […] in N-cadherin protein expression at 15 to 30 mg/kg, po measured for 3 weeks; format: functional, organism-based; conditions: dose 15-30 mg/kg
[29] = Toxicity in CCL4-induced C57BL/6J mouse assessed as effect on uric acid level at 15 to 30 mg/kg, po; format: organism-based; conditions: in vivo, dose 15-30 mg/kg
Mus musculus [30] = experiment: Anti-hepatic fibrosis activity in CCL4-induced C57BL/6J mouse hepatic fibrosis model assessed as downregulation of collagen level at 30 mg/kg, po measured for 3 weeks by Western blot analysis; format: functional, organism-based
[31] = Toxicity in CCL4-induced po dosed C57BL/6J mouse assessed as decrease in spleen weight coefficient; format: organism-based; conditions: in vivo, dose 15-30 mg/kg
Mus musculus [32] = experiment: Anti-hepatic fibrosis activity in CCL4-induced C57BL/6J mouse hepatic fibrosis model assessed as reduction in liver weight coefficient at 15 to 30 mg/kg, po measured for 3 weeks; format: functional, organism-based; conditions: dose 15-30 mg/kg
Mus musculus [33] = experiment: Anti-hepatic fibrosis activity in CCL4-induced C57BL/6J mouse hepatic fibrosis model assessed as improvement in inflammatory cell infiltration at 15 to 30 mg/kg, po measured for 3 weeks by H and E staining based analysis; format: functional, organism-based; conditions: dose 15-30 mg/kg
Mus musculus [34] = experiment: Anti-hepatic fibrosis activity in CCL4-induced C57BL/6J mouse hepatic fibrosis model assessed as downregulation of alpha-SMA level in liver at 30 mg/kg, po measured for 3 weeks by immunohistochemical analysis; format: functional, organism-based
Mus musculus [35] = experiment: Antifibrotic activity against CCL4-induced C57BL/6J mouse hepatic fibrosis model assessed as reduction in F4/80+CD11b+ in macrophage at 15 mg/kg, po measured for 3 weeks by flow cytometry analysis relative to control; format: functional; parameters: scale not given: the % may be the effect or the level left
Mus musculus [36] = experiment: Anti-hepatic fibrosis activity in CCL4-induced C57BL/6J mouse hepatic fibrosis model assessed as downregulation of collagen level in liver at 30 mg/kg, po measured for 3 weeks by immunohistochemical analysis; format: functional, organism-based
Mus musculus [37] = experiment: Anti-hepatic fibrosis activity in CCL4-induced C57BL/6J mouse hepatic fibrosis model assessed as decrease in serum ALT level at 15 to 30 mg/kg, po measured for 3 weeks; format: functional, organism-based; conditions: dose 15-30 mg/kg
Mus musculus [38] = experiment: Anti-hepatic fibrosis activity in CCL4-induced C57BL/6J mouse hepatic fibrosis model assessed as decrease in serum AST level at 15 to 30 mg/kg, po measured for 3 weeks; format: functional, organism-based; conditions: dose 15-30 mg/kg
Mus musculus [39] = experiment: Antifibrotic activity against CCL4-induced C57BL/6J mouse hepatic fibrosis model assessed as reduction in CD11b/Gr-1 in MDSC cells at 15 mg/kg, po measured for 3 weeks by flow cytometry analysis relative to control; format: functional; parameters: scale not given: the % may be the effect or the level left
Mus musculus [40] = experiment: Antifibrotic activity against CCL4-induced C57BL/6J mouse hepatic fibrosis model assessed as reduction in CD69/CD4 in Th1 cell cells at 15 mg/kg, po measured for 3 weeks by flow cytometry analysis relative to control; format: functional; parameters: scale not given: the % may be the effect or the level left
Mus musculus [41] = experiment: Anti-hepatic fibrosis activity in CCL4-induced C57BL/6J mouse hepatic fibrosis model assessed as downregulation of TGF-beta1 mRNA expression at 30 mg/kg, po measured for 3 weeks by qRT-PCR analysis; format: functional, organism-based
LX-2 [42] = experiment: Effect on fibronectin protein level in TGF-beta1-induced human LX2 cells at 20 uM pretreated with TGF-beta1 for 1 hr followed by compound addition and measured after 24 hrs by Western blot analysis; format: functional, cell-based
LX-2 [43] = experiment: Effect on alpha-SMA protein level in TGF-beta1-induced human LX2 cells at 20 uM pretreated with TGF-beta1 for 1 hr followed by compound addition and measured after 24 hrs by Western blot analysis; format: functional, cell-based
LX-2 [44] = experiment: Downregulation of alpha-SMA mRNA expression in TGF-beta1-induced human LX2 cells at 20 uM pretreated with TGF-beta1 for 1 hr followed by compound addition and measured after 24 hrs by qRT-PCR analysis; format: functional, cell-based
LX-2 [45] = experiment: Downregulation of fibronectin mRNA expression in TGF-beta1-induced human LX2 cells at 20 uM pretreated with TGF-beta1 for 1 hr followed by compound addition and measured after 24 hrs by qRT-PCR analysis; format: functional, cell-based

COc1ccc(/C=C/C(=O)Nc2ccc(C(=O)NC3CCCC3)nc2)cc1OC
inhibition at 20 µM (LX-2 [1]): 41% | viability at 72 h, 20 µM [2]: 64.5% | Activity (LX-2 [3]): Active

COc1ccc(/C=C/C(=O)Nc2ccccc2C(=O)O)cc1OC [TRANILAST]
Activity (Mus musculus [4]): 1.66% | Activity (Mus musculus [5]): 5.09% | inhibition at 20 µM (LX-2 [1]): 17.5% | Activity (Mus musculus [6]): 2.87% | Activity (Mus musculus [7]): 1.92% | Activity [8]: Non-Toxic | viability at 72 h, 20 µM [2]: 80% | Activity [9]: Non-Toxic | IC50 at 72 h [10]: 82.3 µM | Activity [11]: Non-Toxic

COc1ccc(/C=C/C(=O)Nc2cccc(C(=O)NC3CCCC3)c2)cc1
Activity (Mus musculus [12]): Active | Activity (Mus musculus [4]): 1.19% | Activity (LX-2 [13]): Active | Activity (Mus musculus [14]): Active | Activity [15]: Non-Toxic | Activity (Mus musculus [16]): Active | Activity (Mus musculus [5]): 4.8% | Activity (Mus musculus [17]): Active | Activity (Mus musculus [18]): Active | Activity (Mus musculus [19]): Active | Activity [20]: Non-Toxic | Activity (Mus musculus [21]): Active | Activity (Mus musculus [22]): Active | Activity (Mus musculus [23]): Active | Activity (Mus musculus [24]): 1.54% | inhibition at 20 µM (LX-2 [1]): 30.3% | Activity (Mus musculus [6]): 1.86% | Activity (Mus musculus [7]): 1.45% | Activity (Mus musculus [25]): Active | Activity [26]: Non-Toxic | Activity (LX-2 [27]): Active | Activity [8]: Non-Toxic | inhibition (Mus musculus [28]): Active | Activity [29]: Non-Toxic | Activity (Mus musculus [30]): Active | Activity [31]: Dose-Dependent Effect | viability at 72 h, 20 µM [2]: 77.5% | Activity (Mus musculus [32]): Active | Activity (Mus musculus [33]): Active | Activity (Mus musculus [34]): Active | Activity [9]: Non-Toxic | Activity (Mus musculus [35]): 5.11% | Activity (Mus musculus [36]): Active | Activity (Mus musculus [37]): Active | Activity (Mus musculus [38]): Active | IC50 at 72 h [10]: 105 µM | Activity [11]: Non-Toxic | Activity (Mus musculus [39]): 1.9% | Activity (Mus musculus [40]): 1.21% | Activity (Mus musculus [41]): Active

COc1ccccc1/C=C/C(=O)Nc1ccc(C(=O)NC2CCCC2)cc1
inhibition at 20 µM (LX-2 [1]): 70.3% | Activity (LX-2 [42]): inactive | viability at 72 h, 20 µM [2]: 70.8% | Activity (LX-2 [43]): inactive | Activity (LX-2 [44]): Active | Activity (LX-2 [45]): Active
